Entries after “also recorded” stand apart in the source; their conditions may differ.
What was measured:
[1] = tested on: C57BL/6J mouse dorsal skin; assay: Assay for hair regeneration in mice (topical treatment of shaved telogen dorsal skin); settings: for Rapid anagen entry on whole dorsal telogen skin: among treated mice
Description: Anagen in black mice is macroscopically recognizable by the melanin pigment visible through the skin, as the melanogenic activity of follicular melanocytes is strictly coupled to the anagen stage of the hair cycle.
All compounds were tested in both male and female mice. Every experiment was repeated independently at least 2 times. Some treatments with different agents were performed concurrently with shared control arms. C57BL/6J male mice were obtained at 6 or 8 weeks of age from Jackson Laboratories (Bar Harbor, ME). C57BL/6J female mice were obtained at 8 weeks of age from Jackson Laboratories (Bar Harbor, Me.). Mice were fed a standard chow diet and provided ad libitum access to food and water throughout the study. Mice were shaved dorsally in telogen, i.e., postnatal days of about 43-45 for males (unless otherwise indicated) and Day 58 for females, respectively. Vehicle control (25 μL DMSO, unless otherwise indicated) or test compounds (in 25 μL DMSO, unless otherwise indicated) were topically applied on the shaved skin every other day (unless otherwise described) for the duration of the experiments (3-6 weeks). Appearance of skin pigmentation and hair growth were monitored and documented by photos and videos. Progression was also assigned a value from 0 to 100 based on pigmentation levels and hair shaft density, with 0 indicating no hair growth (and no pigmentation) and higher number corresponding to darker skin and larger areas of dense hair growth. […] The vehicle DMSO was also mixed with PLO base for topical application.

aged C57BL/6J mice [2] = assay: Topical treatment of shaved aged mice (pilot experiments); type: in vivo, mouse; settings: pilot experiments on aged mice (data not shown)
Description: For oral α-KB treatment, aged male and female C57BL/6J mice were obtained at 87 weeks of age (NIA aged rodent colonies). Mice were housed in a controlled SPF facility (22±2° C., 6:00-18:00, 12 h/12 h light/dark cycle) at UCLA. […] For topical α-KB treatment, aged male C57BL/6J mice were obtained at 21 months of age (NIA aged rodent colonies), shaved the following week, and topically treated with α-KB (32 mM) every other day for one month. All experiments were approved by the UCLA Chancellor's Animal Research Committee.

hair follicles = settings: treatment group vs control
From the text: Mouse dorsal skin was shaved before being collected for histological and molecular analyses. Full-thickness skin tissue was then fixed in 10% formalin solution (Sigma, HT501128) overnight and dehydrated for embedding in paraffin. […] Images were captured by Leica Aperio ScanScope AT brightfield system at ×20 magnification.

p62 transcript = assay: Quantitative RT-PCR of p62 transcript in treated skin; type: in vivo, mouse; settings: 24 hours post-treatment, B2m internal control
Description: At 24 hours post-treatment, telogen skin samples were harvested and total RNA was isolated using TRIzol reagent (Invitrogen) from whole thickness mouse skin tissue. cDNA was synthesized using iScript Reverse Transcription Supermix (Bio-Rad). iTaq Universal SYBR Green Supermix (Bio-Rad) and a Bio-Rad CFX Connect instrument were used for quantitative RT-PCR. The primer sequences used for RT-qPCR are as follows: […]

LC3 = assay: Western blot of treated mouse skin: LC3; type: in vivo; settings: telogen skin of mice treated topically 5 days
Description: (§1) Male mice were shaved and treated every other day starting on Postnatal Day 43. After 5 days, telogen skin samples were harvested and stage confirmed. […] Tissue and cell debris were removed by centrifugation and the lysate was boiled for 5 min in 1×SDS loading buffer containing 5% β-mercaptoethanol.

[3] = tested on: Beclin 1 S14 phosphorylation; assay: Western blot of treated mouse skin: phosphorylated Beclin 1 S14; type: in vivo; settings: Day 5 post-treatment
Description: as §1

[4] = tested on: Beclin 1 S91 phosphorylation; assay: Western blot of treated mouse skin: phosphorylated Beclin 1 S91; type: in vivo
Description: (§2) Male mice were shaved and treated every other day starting on Postnatal Day 43. After 5 days, telogen skin samples were harvested and stage confirmed. Mouse skin tissue lysate was prepared by homogenization in T-PER Tissue Protein Extraction Buffer (Thermo Scientific, 78510) with protease inhibitors (Roche, 11836153001) and phosphatase inhibitors (Sigma, P5726) by FastPrep-24 (MP Biomedicals). Tissue and cell debris were removed by centrifugation and the lysate was boiled for 5 min in 1×SDS loading buffer containing 5% β-mercaptoethanol. Samples were then subjected to SDS-PAGE on NuPAGE Novex 12% Bis-Tris gels (Invitrogen, NP0343BOX), and western blotting was carried out with antibodies against LC3 (Novus, NB100-2220), p62 (Sigma, P0068), Phospho-Beclin-1 (Ser15) (corresponding to Ser14 in mouse) (Cell Signaling, 84966), Phospho-Beclin-1 (Ser93) (corresponding to Ser91 in mouse) (Cell Signaling, 14717), Beclin-1 (Abcam, ab207612), or GAPDH (Ambion, AM4300).

p62/SQSTM1 = assay: Western blot of treated mouse skin: p62; type: in vivo; settings: treated mouse telogen skin
Description: as §1

[5] = tested on: autophagy related markers; assay: Western blot analysis of autophagy related markers in telogen skin; type: in vivo, mouse
Description: as §2

aged C57BL/6J mice [6] = assay: Oral α-KB treatment of aged mice (hair loss / hair coating); type: in vivo, mouse; settings: 8 mM in drinking water over 30 weeks, aged female mice, 131 weeks of age
Description: For oral α-KB treatment, aged male and female C57BL/6J mice were obtained at 87 weeks of age (NIA aged rodent colonies). Mice were housed in a controlled SPF facility (22±2° C., 6:00-18:00, 12 h/12 h light/dark cycle) at UCLA. […] Treatment with either water (vehicle control), or α-KB (90 mg/kg bodyweight) in drinking water, started when mice were at 101 weeks of age. For topical α-KB treatment, aged male C57BL/6J mice were obtained at 21 months of age (NIA aged rodent colonies), shaved the following week, and topically treated with α-KB (32 mM) every other day for one month. All experiments were approved by the UCLA Chancellor's Animal Research Committee.

NC(=O)c1ncn([C@@H]2O[C@H](COP(=O)(O)O)[C@@H](O)[C@H]2O)c1N [AICAR, 5-aminoimidazole-4-carboxamide ribonucleotide]
Rapid anagen entry on whole dorsal telogen skin [1]: never | Hair regeneration ([1]; male mice shaved Postnatal Day 44, topical 16 mM every other day, Day 41 post-treatment): induces hair regeneration; also recorded: stimulated

O=C(O)CCC(=O)C(=O)O [α-KG, α-ketoglutarate]
Hair growth / regeneration in shaved aged animals (aged C57BL/6J mice [2]): did not visibly increase | Follicles and proliferation marker Ki-67 expression (hair follicles): More follicles and high proliferation marker Ki-67 expression

CO/C1=C\C(C)=C\[C@@H](C)[C@@H](O)[C@@H](C)C/C(C)=C/C=C/[C@H](OC)[C@@H]([C@@H](C)[C@@H](O)[C@H](C)[C@@]2(O)C[C@@H](O)[C@H](C)[C@@H](C(C)C)O2)OC1=O [bafilomycin A1]
Effect of co-treatment on hair regeneration by α-KG (64 mM) ([1]; bafilomycin 200 μM, male mice shaved Postnatal Day 52, topical every other day, Day 21 post-treatment): inhibits hair regeneration by α-KG

Cc1cc(Nc2cc(Cl)nc(Oc3ccc([N+](=O)[O-])cc3)n2)n[nH]1 [autophinib]
Effect of co-treatment on hair regeneration by α-KG (64 mM) ([1]; autophinib 4 mM, male mice shaved Postnatal Day 53, topical every other day, Day 20 post-treatment): inhibits hair regeneration by α-KG | Effect of co-treatment on SMER28 (2 mM) induced hair regeneration ([1]; autophinib 4 mM, mice shaved Postnatal Day 51, topical every other day, Day 20 post-treatment): inhibited; also recorded: prevented hair regeneration by SMER28

CO[C@H]1C[C@@H]2CC[C@@H](C)[C@@](O)(O2)C(=O)C(=O)N2CCCC[C@H]2C(=O)O[C@H]([C@H](C)C[C@@H]2CC[C@@H](O)[C@H](OC)C2)CC(=O)[C@H](C)/C=C(\C)[C@@H](O)[C@@H](OC)C(=O)[C@H](C)C[C@H](C)/C=C/C=C/C=C/1C [rapamycin]
Adverse skin effect ([1]; topical 16 μM (data not shown)): hair loss and open wounds

C=CCNc1ncnc2ccc(Br)cc12 [SMER28]
p62 transcript levels (quantitative RT-PCR) (p62 transcript): increased | LC3 expression (Western blot) (LC3): increased | Beclin 1 S14 phosphorylation (mTOR-dependent) [3]: not increased | Beclin 1 S91 phosphorylation (AMPK-dependent) [4]: not increased | Rapid anagen entry on whole dorsal telogen skin [1]: observed from time to time | Hair regeneration ([1]; male mice shaved Postnatal Day 45, topical 1 mM daily, Day 23 post-treatment): greatly induced hair regeneration | Hair regeneration ([1]; mice shaved Postnatal Day 51, topical 2 mM every other day, Day 20 post-treatment): induced hair regeneration | p62 expression (Western blot) (p62/SQSTM1): increased

CN(C)C(=N)N=C(N)N [metformin]
Autophagy induction ([5]; topical treatment of mouse skin): similarly induced | Rapid anagen entry on whole dorsal telogen skin [1]: never | Hair regeneration ([1]; male mice shaved Postnatal Day 43, topical 160 mM every other day, vehicle H2O, Day 48 post-treatment): induces hair regeneration; also recorded: similarly induced

CC[C@H]1/C=C/C=C/C[C@@H](C)[C@H](O)[C@@](C)(O)C(=O)[C@@H](C)[C@H](O)[C@@H](C)C(=O)[C@@H](C)[C@H](O)[C@@H](C)/C=C/C(=O)O[C@@H]2[C@H](C)[C@H](CC1)O[C@]1(CC[C@H](C)[C@H](C[C@@H](C)O)O1)[C@H]2C [oligomycin]
LC3 expression (Western blot) (LC3): Increased autophagy | Beclin 1 S14 phosphorylation (mTOR-dependent) [3]: increased | Beclin 1 S91 phosphorylation (AMPK-dependent) [4]: increased | Rapid anagen entry on whole dorsal telogen skin [1]: observed from time to time | Hair regeneration in female mice ([1]; female mice shaved Postnatal Day 58, topical 10 μM every other day, Day 26 post-treatment): stimulate hair regeneration | Hair regeneration ([1]; male mice shaved Postnatal Day 44, topical 100 μM every other day, Day 23 post-treatment): similarly promoted hair regeneration | Hair regeneration ([1]; male mice shaved Postnatal Day 44, topical 100 μM every other day, Day 23 post-treatment, listed as Oligomycin): induces hair regeneration

CCC(=O)C(=O)O [α-KB, α-ketobutyrate]
LC3 expression (Western blot) (LC3): elevated | Hair loss / hair coating in aged mice (aged C57BL/6J mice [6]): negates hair loss; also recorded: greatly improved hair coating | Phosphorylated Beclin 1 (Western blot) ([5]; telogen skin of mice treated 5 days): elevated | Rapid anagen entry on whole dorsal telogen skin [1]: never | Hair regeneration ([1]; male mice shaved Postnatal Day 44, topical 32 mM every other day, Day 39 post-treatment): induces hair regeneration; also recorded: substantially induced skin pigmentation and hair regeneration | Hair growth / regeneration in shaved aged animals (aged C57BL/6J mice [2]): only moderately promoted hair growth
